In brackets after ≈: the same amount, converted by molar mass. Read-outs that look alike come from different tables or passages of the source.
Tests used:
[1] = system: P. aeruginosa NMI 7197/19; type: cell-based, Pseudomonas aeruginosa; details: NMI 7197/19, 20 h
Method: (§1) MIC values of the peptidomimetics were evaluated by using the modified Hancock lab protocol in non-binding polystyrene microtiter plates. Bacterial suspensions of ~5 × 10^5 CFU/mL in Mueller-Hinton broth (Difco, Sparks, MD, USA) were prepared with Mg^2+ and Ca^2+ concentrations of 4 mg/L each. The compounds were dissolved in H2O and diluted in 0.01% acetic acid, 0.2% BSA (final concentration). Aliquots (11 µL) of test compounds were then transferred to wells containing bacterial suspensions (100 µL). Low-binding sterile tubes and tips (Axygen, Union City, CA, USA) were used for preparation and transfer of the solutions of the compounds. Following incubation for 20 h of the covered plates at 35 °C (±2 °C) with circular shaking at 180 rpm, the MICs were read.

P. aeruginosa PAO1 = type: cell-based, Pseudomonas aeruginosa
Method: as §1

A. baumannii NMI 3658/17 = type: cell-based, Acinetobacter baumannii; details: NMI 3658/17, 20 h
Method: as §1

A. baumannii ATCC 19606 = type: cell-based, Acinetobacter baumannii; details: ATCC 19606, 20 h
Method: as §1

[2] = Hydrophobicity by retention in analytical RP-HPLC (% MeCN at peak elution); type: physicochemical; details: for % MeCN at Elution, Aeris Peptide: Phenomenex Aeris Peptide XB-C18 column; for % MeCN at Elution, Aeris Peptide / % MeCN at Elution, Luna Omega / % MeCN at Elution, Supelco Discovery: gradient 0→60% B during 15 min; for % MeCN at Elution, Luna: Phenomenex Luna C18(2) column, RP-HPLC gradient 0→60% B during 15 min, relative hydrophobicity; for % MeCN at Elution, Luna Omega: Phenomenex Luna Omega Polar C18 column; for % MeCN at Elution, Supelco Discovery: Supelco Discovery BIO Wide pore C18 column
Method: For each peptide/β-peptoid hybrid oligomer, the retention time in RP-HPLC was measured on four different columns (details shown in Table 2): Phenomenex Luna C18(2) column (recommended for hydrophobic compounds [49]), Phenomenex Luna Omega Polar C18 column (recommended for both very polar and non-polar compounds [50]) as well as Phenomenex Aeris Peptide XB-C18 [51] and Sigma-Aldrich Supelco Discovery BIO Wide pore C18 [52] columns, which both are recommended for analysis of peptides. The retention times of the compounds on each column were used to calculate the acetonitrile concentration at peak elution (denoted merely as % MeCN; Table 1). As expected, the % MeCN for each compound varied somewhat between the four columns.
Starting materials and solvents were acquired from commercial suppliers (Iris Biotech, Markredwitz, Germany; Fluorochem, Hadfield, UK; and Merck, Darmstadt, Germany) and used without further purification. Water used for analytical and preparative high-performance liquid chromatography (HPLC) was filtered through a 0.22-μm capsule filter using an Evoqua LaboStar Pro TWF UV system. Purity and retention time of each peptidomimetic were determined by analytical HPLC by using a Phenomenex Luna Omega Polar C18 column (150 × 4.6 mm; particle size: 3 μm; pore size: 100 Å) on a Shimadzu Prominence and Shimadzu Nexera system using an aqueous acetonitrile (MeCN, VWR, Søborg, Denmark) gradient with 0.1% trifluoroacetic acid (TFA, Iris Biotech, Markredwitz, Germany) added (eluent A: 5:95 MeCN–H2O + 0.1% TFA, eluent B: 95:5 MeCN–H2O + 0.1% TFA); a flow rate of 0.8 mL/min was used. For elution of peptidomimetics, a linear gradient of 0% to 60% B during 15 min was used with UV detection at λ = 220 nm. […] Retention time of each peptidomimetic was also determined by using a Phenomenex Luna C18(2) column (150 × 4.6 mm; particle size: 3 μm; pore size: 100 Å), a Phenomenex Aeris Peptide XB-C18 column (150 × 4.6 mm; particle size: 3.6 μm; pore size: 100 Å), and a Sigma-Aldrich Supelco Discovery BIO Wide pore C18 column (150 × 4.6 mm, particle size: 3 µm; pore size: 300 Å). For each peptidomimetic, the percentage of MeCN at peak elution was calculated from the retention time by using the following formula:(1) %MeCN =0.95 (0.6Rt/15 min)+0.05 (1−0.6Rt/15 min)

[3] = Determination of hemolytic activity; type: cell-based; details: red blood cell suspension in PBS buffer, human red blood cells at 400 µg/mL, 37 °C
Method: The lysis of human red blood cells was measured almost as previously described, albeit with modifications. In brief, a suspension of freshly drawn human red blood cells (hRBCs) was washed three times with PBS buffer and centrifuged two times for 5 min at 2500 rpm. A two-fold serial dilution of compounds in PBS buffer was prepared. Plates (conical-bottomed 96-well plates) with three replicate wells per dilution, each containing 1% red blood cell suspension, were prepared and dosed with the test compound to achieve a final concentration of 400 μg/mL in a total volume of 100 μL. The plates were incubated (37 °C) for 60 min with mild agitation, and then the cells were pelleted by centrifugation at 1500 rpm for 5 min. The supernatants (50 μL) were then transferred to a fresh 96-well plate, and the concentration of hemoglobin was detected by measuring the OD at 405 nm. The OD of cells incubated with 1% SDS defined 100% hemolysis, while the OD of cells incubated with PBS buffer defined 0% hemolysis. The concentration tested was 400 μg/mL (only average values are stated in Table 5). The percent hemolysis was calculated by using the formula:(3) Hemolysis (%)=100×[Asample−Aneg.control/Apos.control−Aneg.control]

E. coli NMI 3371/16 = type: cell-based, Escherichia coli; details: NMI 3371/16, 20 h
Method: as §1

E. coli NMI 3898/15 = type: cell-based, Escherichia coli; details: NMI 3898/15, 20 h
Method: as §1

E. coli ATCC 25922 = type: cell-based, Escherichia coli; details: ATCC 25922, 20 h
Method: as §1

E. faecalis ATCC 29212 = type: cell-based; details: ATCC 29212, 20 h
Method: as §1

K. pneumoniae ATCC 13883 = type: cell-based; details: ATCC 13883, 20 h
Method: as §1

S. aureus ATCC 29213 = type: cell-based, Staphylococcus aureus; details: ATCC 29213, 20 h
Method: as §1

MIC, P. aeruginosa NMI 7197/19 [1] | MIC, PA (P. aeruginosa PAO1; PAO1, 20 h) | MIC, A. baumannii NMI 3658/17 (A. baumannii NMI 3658/17) | MIC, AB (A. baumannii ATCC 19606) | % MeCN at Elution, Aeris Peptide [2] | % MeCN at Elution, Luna [2] | % MeCN at Elution, Luna Omega [2] | % MeCN at Elution, Supelco Discovery [2] | MIC, E. coli NMI 3371/16 (E. coli NMI 3371/16) | MIC, E. coli NMI 3898/15 (E. coli NMI 3898/15) | MIC, EC (E. coli ATCC 25922) | MIC, EF (E. faecalis ATCC 29212) | MIC, KP (K. pneumoniae ATCC 13883) | MIC, SA (S. aureus ATCC 29213) | MIC, PA (P. aeruginosa PAO1; P. aeruginosa PAO1 (WT)) | SMILES | hemolysis at 60 min [3]
>64 µg/mL | 32 to 64 µg/mL | 4 to 8 µg/mL | 4 to 8 µg/mL | 39.6 % MeCN | 41.9 % MeCN | 42.4 % MeCN | 42.6 % MeCN | 8 µg/mL (≈ 3.79 µM) | 16 µg/mL (≈ 7.59 µM) | 8 µg/mL (≈ 3.79 µM) | >64 µg/mL | >64 µg/mL |  |  | NCCCC[C@H](NC(=O)CCN(Cc1ccc(F)cc1)C(=O)[C@H](CCCCN)NC(=O)CCN(Cc1ccc(F)cc1)C(=O)[C@H](CCCCN)NC(=O)CCN(Cc1ccc(F)cc1)C(=O)[C@H](CCCCN)NC(=O)CCN(Cc1ccc(F)cc1)C(=O)[C@H](CCCCN)NC(=O)CCN(Cc1ccc(F)cc1)C(=O)[C@H](CCCCN)NC(=O)CCOCCOCCOCCOCCN)C(=O)N(CCC(N)=O)Cc1ccc(F)cc1 [Compound 3, H-sPEG4-[X]6-NH2] | 8.1%
>64 µg/mL | 32 µg/mL (≈ 15.9 µM) | 4 µg/mL (≈ 1.99 µM) | 4 µg/mL (≈ 1.99 µM) | 39.4 % MeCN | 41.4 % MeCN | 41.9 % MeCN | 41.5 % MeCN | 8 µg/mL (≈ 3.99 µM) | 16 µg/mL (≈ 7.97 µM) | 8 µg/mL (≈ 3.99 µM) | >64 µg/mL | >64 µg/mL | 32 to 64 µg/mL |  | NCCCC[C@H](NC(=O)CCN(Cc1ccc(F)cc1)C(=O)[C@H](CCCCN)NC(=O)CCN(Cc1ccc(F)cc1)C(=O)[C@H](CCCCN)NC(=O)CCN(Cc1ccc(F)cc1)C(=O)[C@H](CCCCN)NC(=O)CCN(Cc1ccc(F)cc1)C(=O)[C@H](CCCCN)NC(=O)CCN(Cc1ccc(F)cc1)C(=O)[C@H](CCCCN)NC(=O)COCCOCCN)C(=O)N(CCC(N)=O)Cc1ccc(F)cc1 [Compound 2, H-sPEG2-[X]6-NH2] | 2.4%
>64 µg/mL | 16 µg/mL (≈ 7.44 µM) | 4 to 8 µg/mL | 4 µg/mL (≈ 1.86 µM) | 39.2 % MeCN | 41.3 % MeCN | 42.1 % MeCN | 41.4 % MeCN | 8 to 16 µg/mL | 16 to 32 µg/mL | 8 to 16 µg/mL | >64 µg/mL | >64 µg/mL | >64 µg/mL |  | NCCCC[C@H](NC(=O)CCN(Cc1ccc(F)cc1)C(=O)[C@H](CCCCN)NC(=O)CCN(Cc1ccc(F)cc1)C(=O)[C@H](CCCCN)NC(=O)CCN(Cc1ccc(F)cc1)C(=O)[C@H](CCCCN)NC(=O)CCN(Cc1ccc(F)cc1)C(=O)[C@H](CCCCN)NC(=O)CCN(Cc1ccc(F)cc1)C(=O)[C@H](CCCCN)NC(=O)COCCOCCN)C(=O)N(CCC(=O)NCCOCCOCC(N)=O)Cc1ccc(F)cc1 [Compound 4, H-sPEG2-[X]6-sPEG2-NH2] | 5.4%
>64 µg/mL |  | 16 µg/mL (≈ 6.79 µM) |  | 40.0 % MeCN | 42.2 % MeCN | 43.2 % MeCN | 42.5 % MeCN | 8 to 16 µg/mL | 32 µg/mL (≈ 13.6 µM) | 16 µg/mL (≈ 6.79 µM) | >64 µg/mL | >64 µg/mL | >64 µg/mL | > 64 µg/mL | NCCCC[C@H](NC(=O)CCN(Cc1ccc(F)cc1)C(=O)[C@H](CCCCN)NC(=O)CCN(Cc1ccc(F)cc1)C(=O)[C@H](CCCCN)NC(=O)CCN(Cc1ccc(F)cc1)C(=O)[C@H](CCCCN)NC(=O)CCN(Cc1ccc(F)cc1)C(=O)[C@H](CCCCN)NC(=O)CCN(Cc1ccc(F)cc1)C(=O)[C@H](CCCCN)NC(=O)CCOCCOCCOCCOCCN)C(=O)N(CCC(=O)NCCOCCOCCOCCOCCC(N)=O)Cc1ccc(F)cc1 [Compound 5, H-sPEG4-[X]6-sPEG4-NH2] | 6.4%

— paper PMC8268887, “Peptide/β-Peptoid Hybrids with Ultrashort PEG-Like Moieties: Effects on Hydrophobicity, Antibacterial Activity and Hemolytic Properties” (International Journal of Molecular Sciences, 2021)
